Measurements: US20190091281A1, “DELIVERY PHARMACEUTICAL COMPOSITIONS INCLUDING PERMEATION ENHANCERS” (AQUESTIVE THERAPEUTICS, INC., priority 2017, published 2019)
Values joined by “and” are separate entries in the source; they are usually repeats but may differ in a detail not shown here. Equal entries are not always repeated. Where two headings read alike, the source gives them in different places. Blank lines part the entries; values can stand above or below the molecule they belong to.

Columns and labels:
[1] = POC study in mini pigs, octreotide solution on buccal/sublingual mucosa after microneedles; type: in vivo; settings: pig, blood; for AUC / Cmax / bioavailability: 12 mg
From the text: Solutions were placed after scraping off mucin using a spatula and then treating the area with microneedles (750 um for buccal and 500 um for sublingual). Methocel (40% in water was used as a glue to attach the holder keeping the solution on to the tissue. The test material was colored so that any loss of drug during the experimental set up could be easily monitored.

[2] = as above; type: in vivo; settings: pig, blood, iv, 100 ug, 100 μg I.V.
frozen buccal tissue = assay: Ex vivo permeation model of octreotide with permeation enhancers (Franz diffusion cell)
From the text: The Franz diffusion cell apparatus consists of two chambers separated by a membrane of, for example, animal or human skin. The test product is applied to the membrane via the top chamber. The bottom chamber contains fluid from which samples are taken at regular intervals for analysis to determine the amount of active that has permeated the membrane at set time points.
Applicants performed an ex vivo screening of permeation enhancers of octreotide delivery. Ex vivo porcine tissue was used, with a tissue thickness 300 um, 3 mg of octreotide and a time of up to 6 hours.

[3] = Octreotide compatibility of permeation enhancers (solubility without precipitation)
[4] = Octreotide degradation on buccal tissue with microneedle application; type: in vitro ADME; settings: 4 hours at 37 degrees C.
Protocol: As shown in the Table below, the buccal tissue was subjected to microneedle application (10 times) and incubated with octreotide solution (2 ml, 1 mg/ml) for 4 hours at 37 degrees C.

buccal tissue = assay: HIFU as physical permeation enhancer, ex vivo permeation through full thickness tissue; type: in vitro ADME; settings: HIFU 30 seconds (180 watts, duty cycle 5%, PRF 10 Hz), two hours
From the text: In one example, the inventors used High Intensity Focused Ultrasound (HIFU) as physical permeation enhancer. HIFU can have mechanical, cavitational or thermal effects on the tissue depending on the Ultrasound parameters such as intensity, duty cycle, pulse repetition frequency and the exposure time. In this experiment, the buccal tissue was subjected to HIFU for 30 seconds (power of 180 watts, duty cycle 5%, PRF of 10 Hz) octreotide permeation through the tissue was monitored for two hours in the ex vivo permeation model described earlier (except using full thickness tissue which includes connective tissue of the sub-mucosa).

[5] = 12 mg solution with 5 wt % DDTMAB applied to disrupted buccal mucosa
[6] = 12 mg with 5 wt % DDTMAB applied to disrupted sublingual mucosa
[7] = octreotide flux, enhancer 10 Wt %, frozen buccal tissue 300 um
[8] = octreotide permeation, 10% w/w, Octreotide soluble after vigorous stirring
[9] = 10% w/w, Octreotide soluble after vigorous stirring

Molecule: C[C@@H](O)[C@@H]1NC(=O)[C@H](CCCCN)NC(=O)[C@@H](Cc2c[nH]c3ccccc23)NC(=O)[C@H](Cc2ccccc2)NC(=O)[C@@H](NC(=O)[C@H](N)Cc2ccccc2)CSSC[C@@H](C(=O)N[C@H](CO)[C@@H](C)O)NC1=O [octreotide acetate]
Tmax [1, 5]: 3 h | AUC [1, 5]: 19.8 ng·h/mL | Cmax [1, 5]: 4.2 ng/mL | bioavailability [1, 5]: 1.11% | AUC [1, 6]: 106 ng·h/mL | Cmax [1, 6]: 25.6 ng/mL | bioavailability [1, 6]: 5.97% | AUC [2]: 14.8 ng·h/mL | Cmax [2]: 31 ng/mL | Tmax [2]: 4 min

Permeation Ranking 0-1-2-3 None-Low-Med-High (frozen buccal tissue; pig): 0 | Average flux (frozen buccal tissue; pig, 5 Wt %): 0.01 ug/cm2*min
Molecule: CCCCCCCC/C=C\CCCCCCCC(=O)O [Oleic acid]

Molecule: CCCCCCCCCCCCCCCC[N+](C)(C)C.[Br-] [Hexadecyltrimethylammonium bromide]
permeation activity (frozen buccal tissue): most active | Permeation Ranking 0-1-2-3 None-Low-Med-High (frozen buccal tissue; pig): 3 | Average flux (frozen buccal tissue; pig, 1 Wt %): 1.23 ug/cm2*min | compatibility with octreotide in terms of solubility without causing precipitation [3]: improved compatibility

Average flux (frozen buccal tissue; pig, 5 Wt %): 0.08 ug/cm2*min
Molecule: CN1CCCC1=O [1-Methyl 2-Pyrrolidone]

Molecule: O=CC=Cc1ccccc1 [Cinnamaldehyde]
Average flux (frozen buccal tissue; pig, 1 Wt %): 0.00 ug/cm2*min | Average flux (frozen buccal tissue; pig, 3 Wt %): 0.00 ug/cm2*min

Average flux (frozen buccal tissue): 0.10 ug/cm2*min
Molecule: CCCCCCCCN1CCCC1=O [Octyl pyrroldone]

Permeation Ranking 0-1-2-3 None-Low-Med-High (frozen buccal tissue): 0
Molecule: O=C(O)CN(CCOCCOCCN(CC(=O)O)CC(=O)O)CC(=O)O [EGTA]

permeation activity (frozen buccal tissue): not active
Molecule: CCCCCC[N+](C)(C)C.[Br-] [Hexyltrimethylammonium bromide]

permeation activity (frozen buccal tissue): not active
Molecule: CCCCCCCC[N+](C)(C)C.[Br-] [Octyltrimethylammonium bromide]

Molecule: CCCCCCCCCCCC[N+](C)(C)C.[Br-] [Dodecyltrimethylammonium bromide]
permeation activity (frozen buccal tissue; aliphatic trimethyl-ammonium bromide surfactants at 1 wt % (FIG. 5)): most active | Octreotide Compatibility [3]: Yes | compatibility with octreotide in terms of solubility without causing precipitation [3]: improved compatibility

Average flux (frozen buccal tissue): 0.53 ug/cm2*min | Permeation Ranking 0-1-2-3 None-Low-Med-High (frozen buccal tissue): 1
Molecule: Dimethyl-cyclodextrin

Molecule: CO[C@H]1CO[C@H]2[C@@H]1OC[C@H]2OC [Dimethyl isosorbide]
Average flux (frozen buccal tissue; octreotide flux, enhancer 5 Wt %, frozen buccal tissue 300 um): 0.07 ug/cm2*min

Average flux (frozen buccal tissue): 3.14 ug/cm2*min | flux (frozen buccal tissue): 3-3.5 μg/cm^2*min | biodegradability, quantified by analysis of glycine betaine (biological media (plasma, esterase solution, simulated intestinal fluid, tissue homogenate), 37 degrees C.): highly biodegradable | degradability in acidic environment (simulated gastric fluid (pepsin/low pH)): not degradable
Molecule: CCCCCCCCCCCCOC(=O)C[N+](C)(C)C [Glycine Betaine Ester C12]

Permeation Ranking 0-1-2-3 None-Low-Med-High (frozen buccal tissue): 1
Molecule: CCCCCCCCCCCCCCO[C@@H]1O[C@H](CO)[C@@H](O[C@H]2O[C@H](CO)[C@@H](O)[C@H](O)[C@H]2O)[C@H](O)[C@H]1O [TDM]

Molecule: C[C@H](CCC(=O)NCC(=O)[O-])[C@H]1CC[C@H]2[C@@H]3CC[C@@H]4C[C@H](O)CC[C@]4(C)[C@H]3C[C@H](O)[C@]12C.[Na+] [GDC, Sodium glycodeoxycholate]
Average flux (frozen buccal tissue; octreotide flux, enhancer 0.1 Wt %, frozen buccal tissue 300 um): 0.14 ug/cm2*min | Average flux (frozen buccal tissue; [7]): 0.85 ug/cm2*min | Permeation Ranking 0-1-2-3 None-Low-Med-High (frozen buccal tissue; [8]): 2 | Octreotide Compatibility [3, 9]: Yes

Average flux (frozen buccal tissue; pig, 10 Wt %): 0.58 ug/cm2*min
Molecule: Cl.NCCCNCCCCNCCCN [Spermine HCl]

Average flux (frozen buccal tissue): 0.14 ug/cm2*min
Molecule: CCCCCCCCCCCCCCCCOP(=O)([O-])OCC[N+](C)(C)C [Miltefosine (Hexadecyl Phosphatidyl Choline), reference compound]

Molecule: Sodium Deoxycholate [DOC]
Average flux (frozen buccal tissue; [7]): 0.49 ug/cm2*min and 0.41 ug/cm2*min | Permeation Ranking 0-1-2-3 None-Low-Med-High (frozen buccal tissue; [8]): 1 | Octreotide Compatibility [3, 9]: Yes

Permeation Ranking 0-1-2-3 None-Low-Med-High (frozen buccal tissue; pig): 1 | Average flux (frozen buccal tissue; pig, 10 Wt %): 0.10 ug/cm2*min
Molecule: O=C(O)CN(CCN(CC(=O)O)CC(=O)O)CC(=O)O [EDTA]

Permeation Ranking 0-1-2-3 None-Low-Med-High (frozen buccal tissue): 3
Molecule: Benzalkonium chloride [Benzalkonium chloride (BAC)]

Average flux (frozen buccal tissue): 0.15 ug/cm2*min
Molecule: Hydroxypropylcyclodextrin

Molecule: CCCCCCCCCCCCCCCC[N+](C)(C)C.[Br-] [drawing 5]
Avg Flux (frozen buccal tissue; pig, 1 wt %): 1.31 (1 wt %) μg/cm^2*min

Average flux (frozen buccal tissue): 0.51 ug/cm2*min | flux (frozen buccal tissue): 3-3.5 μg/cm^2*min
Molecule: CCCCCCCC/C=C\CCCCCCCCOC(=O)C[N+](C)(C)C [Glycine Betaine Ester C18 (Oleyl)]

Average flux (frozen buccal tissue): 0.69 ug/cm2*min | flux (frozen buccal tissue): 3-3.5 μg/cm^2*min
Molecule: CCCCCCCCCCCCCCCCOC(=O)C[N+](C)(C)C [Glycine Betaine Ester C16]

Molecule: C[C@@H](O)[C@@H]1NC(=O)[C@H](CCCCN)NC(=O)[C@@H](Cc2c[nH]c3ccccc23)NC(=O)[C@H](Cc2ccccc2)NC(=O)[C@@H](NC(=O)[C@H](N)Cc2ccccc2)CSSC[C@@H](C(=O)N[C@H](CO)[C@@H](C)O)NC1=O [Octreotide]
flux (frozen buccal tissue; octreotide concentration of 5 mg/ml (FIG. 4)): approximately 0.500 ug/cm2*min | flux (frozen buccal tissue; octreotide concentration of 15-20 mg/ml (FIG. 4)): 2.0-2.5 ug/cm2*min | remaining at 4 h, 1 mg/ml ([4]; + Tissue with microneedle (10 times)): 98% | remaining at 4 h, 1 mg/ml ([4]; buccal tissue incubated with octreotide solution, + Tissue): 86% | remaining at 4 h, 1 mg/ml ([4]; control without tissue, control, octreotide solution 2 ml, 1 mg/ml): 100% | octreotide permeated through the tissue (buccal tissue): ~60 µg
